Tests used:
[1] = system: HH-25 cells; experiment: DNA laddering assay (apoptosis) in hepatocytes; conditions: 1 hour treatment, concentrations as in maturation studies, refed 6 hours
[2] = system: SREBP-1; experiment: Indirect immunofluorescence of SREBP-1 subcellular localization; type: cell-based, human; conditions: 30 minutes after initiating treatment; TNF-α 10 ng/ml, sphingomyelinase 100 mUnits, C2-ceramide 10 μM
Procedure: FIGS. 5A-5D show indirect immunofluorescence of SREBP-1. FIGS. 5A-5D are discussed in more detail as follows. SREBP-1 was visualized with rabbit polyclonal antibodies directed towards the N-terminal DNA binding domain which is common to both the precursor and mature forms. Cells were maintained in media supplemented with 1 μg/ml 25-hydroxycholesterol and 15 μg/ml cholesterol for 24 hours before the experiment. Immunofluorescence was performed as described. All magnifications are 40× and all photographs were taken of samples that were fixed 30 minutes after initiating treatment. FIG. 5A) Control cells, FIG. 5B) Cells treated with TNF-α (10 ng/ml), FIG. 5C) Cells treated with sphingomyelinase (100 mUnits), FIG. 5D) Cells treated with C2-ceramide (10 μM).
Cultured HH-25 cells were grown on coverslips and treated as described. After treatment, the cells were washed 3×5 minutes with PBS containing 1 mM MgCl2 and 0.1 mM CaCl2 (solution A). The cells were fixed with 3% paraformaldehyde in solution A for 10 minutes and permeabilized with 0.5% Triton X-100 in solution A for 6 minutes at room temperature. The coverslips were then washed 3×5 minutes with solution A.
Primary antibody (anti-SREBP1) was used at a dilution of […] in PBS and applied for 1 hour with gentle shaking. The cells were washed as above and a FITC conjugated anti-rabbit IgG secondary antibody, was applied for ½ hour according to the instructions of the manufacturer. The coverslips were washed, mounted on microscope slides and were viewed and photographed at the indicated magnification on a Zeiss Axiovert 25 fluorescence microscope.

[3] = system: SREBP-1; experiment: SREBP-1 maturation (Western immunoblot) in hepatocytes transfected with N-SMase plasmids or incubated with r-N-SMase; type: cell-based, human; conditions: C-2 ceramide positive control
Procedure: The present example was conducted to address whether the overexpression of N-SMase employing two separate N-SMase plasmid DNA(PHH-1, representing the entire nucleotide sequence in N-SMase cDNA and PHH-11, representing nucleotide sequence 862-1414) would increase the maturation of SREBP-1 and LDL receptor mRNA expression in a human hepatocyte cell line […]. Cells transfected with mock plasmid cDNA(PSV-SPOT) served as a control and cells incubated with C-2 ceramide previously shown to induce SREBP-1 maturation served as a positive control.
Briefly, human hepatocytes(1×10^4) were seeded in sterile 100 mm^2 in medium containing 10% dialyzed, heat inactivated fetal bovine serum without antibiotics. Twenty four hours later medium was replaced with 9 ml of fresh serum free medium. After incubation for 30 min at 37° C. 5-40 μg of the plasmid DNA in 1 ml of a CaCl2 solution (mixed with equal volume of 0.25-2.5 M CaCl2 solution in HEPES buffer and HEPES buffer pH 6.95). Following gentle mixing incubation of cells was continued for 5-24 hr at 37° C. The transfection reaction was terminated by removing the medium and washing the cells with serum free medium. Next, fresh serum supplemented medium was added and incubation was continued for an additional 24 hr and cells were harvested in appropriate buffer centrifuged and stored frozen until further analysis. […]

[4] = system: LDL receptor mRNA; experiment: LDL receptor mRNA, Northern analysis in human hepatocytes; type: cell-based; conditions: TNF-α treatment
Procedure: Briefly, human hepatocytes(1×10^4) were seeded in sterile 100 mm^2 in medium containing 10% dialyzed, heat inactivated fetal bovine serum without antibiotics. Twenty four hours later medium was replaced with 9 ml of fresh serum free medium. After incubation for 30 min at 37° C. 5-40 μg of the plasmid DNA in 1 ml of a CaCl2 solution (mixed with equal volume of 0.25-2.5 M CaCl2 solution in HEPES buffer and HEPES buffer pH 6.95). Following gentle mixing incubation of cells was continued for 5-24 hr at 37° C. The transfection reaction was terminated by removing the medium and washing the cells with serum free medium. Next, fresh serum supplemented medium was added and incubation was continued for an additional 24 hr and cells were harvested in appropriate buffer centrifuged and stored frozen until further analysis. Cell pellets were homogenized and suitable aliquots subjected to Western immunoblot analysis as described below and in Examples 1-7 above. Total RNA was isolated from another batch of cells transfected as above and subjected to Northern analysis employing a ^32P labeled LDL receptor consensus sequence. The autoradiographs were developed and photographed.

[5] = system: neutral sphingomyelinase (N-SMase); experiment: Neutral sphingomyelinase assay after TNF-α stimulation of HH-25 cells; type: cell-based, human; conditions: TNF-α 10 ng/ml
Procedure: FIG. 1 illustrates the effect of TNF-α on neutral sphingomyelinase activity and is explained in more detail as follows: Confluent cultures of HH-25 cells were washed once with PBS and incubated in serum free media for 30 minutes prior to the addition of TNF-α (10 ng/ml). At the indicated time, cells were harvested in PBS, pelleted and frozen. Cells were subsequently lysed as described in materials and methods. N-SMase assays were performed in duplicate as described. Error bars represent ±one standard deviation from the mean.
After stimulation with TNF-α for the indicated time intervals, the cells were washed once with 5 ml PBS and harvested. The pellet was stored frozen at −70° C. and resuspended in 0.5 ml buffer B (100 mM Tris HCl pH 7.4, 0.1% triton X-100, 1 mM EDTA and protease inhibitors). The cell suspension was sonicated 3 times (3 second bursts) using a probe sonicator and centrifuged at 500×g at 4° C. for 5 minutes. The supernatant was used as the enzyme source.
100 μg of protein was assayed for neutral sphingomyelinase activity in a buffer consisting of 5 mM Tris HCl pH 7.4, 0.1% triton X-100, 0.1 mg BSA, 5 mM MgCl2, and […] [^14C] sphingomyelin (12,000 dpm). The assay was incubated at 37° C. for 1.5 hours and terminated with the addition of 1 ml of 10% TCA. […]

## CCCCCCCCCCCCC/C=C/[C@@H](O)[C@H](CO)NC(C)=O [C2-ceramide, N-acetylsphingosine, reference compound]
[1]
  induction of apoptosis (160 bp DNA ladder): did not induce apoptosis
[2]
  subcellular localization of SREBP-1 (staining pattern): intense nuclear staining and little extra-nuclear staining
[3]; PHH1 5,10,20,40 μg plasmid DNA/dish, PHH11 20 μg/dish
  maturation of SREBP-1 compared to mock cDNA transfected cells: markedly increased
[3]; r-N-SMase 0.4, 0.8, 2, and 4 μg/ml
  maturation of SREBP-1 in hepatocytes incubated with protein or ceramide: markedly increased

## TNF-α
[4]
  LDL receptor mRNA level: induces LDL receptor mRNA level
[1]
  induction of apoptosis (160 bp DNA ladder): did not induce apoptosis
[5]
  return of N-SMase activity to control levels: ≤ 1 h
[5]; 15 minutes after addition
  maximal increase in neutral sphingomyelinase activity: 2.5 fold
[2]
  subcellular localization of SREBP-1 (staining pattern): intense nuclear staining and little extra-nuclear staining

Source: patent US6713057B1, “Compositions and methods for modulating serum cholesterol” (The Johns Hopkins University, priority 1999, dated 2004)
